test system: PMA-differentiated THP-1 cells; assay: IL-1β production in PMA-differentiated THP-1 cells stimulated with gramicidin (hTHP-1 assay containing 2% fetal bovine serum; Procedures 1 and 2); type: cell-based, human; details: Homo sapiens, THP-1, read-out: hTHP-1 IC50 in 2% FBS, hTHP-1 assay containing 2% fetal bovine serum; Table B5
How it was run: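 PMA 20 ng/ml 16-18 h → trypsinise → 50,000 cells/well, RPMI/2% FBS; cpd 1 h (11-pt, 100–0.0017 μM; DMSO 0.37%); gramicidin 5 μM, 2 h; spin; supernatant IL-1β via HTRF.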

Compared with CCn1cc(F)c([S@](N)(=O)=NC(=O)Nc2c(C)c(C(F)(F)F)nc3c2[C@H](C)CC3)n1 (single isomer, unassigned) [Compound 1100a, (R, R) or (R, S)-N′-((3,5-dimethyl-2-(trifluoromethyl)-6,7-dihydro-5H-cyclopenta[b]pyridin-4-yl)carbamoyl)-1-ethyl-4-fluoro-1H-pyrazole-3-sulfonimidamide], CCn1cc(F)c([S@](N)(=O)=NC(=O)Nc2c(C)c(C(F)(F)F)nc3c2[C@@H](C)CC3)n1 (single isomer, unassigned) [Compound 1100b, (R, S) or (R, R)-N′-((3,5-dimethyl-2-(trifluoromethyl)-6,7-dihydro-5H-cyclopenta[b]pyridin-4-yl)carbamoyl)-1-ethyl-4-fluoro-1H-pyrazole-3-sulfonimidamide] is lower in IC50: 5 to 30 µM for the first, 0.2 to 1 µM for the second. The second is the more potent here.

same assay, conditions: read-out: hTHP-1 IC50 in 2% FBS; hTHP-1 assay containing 2% fetal bovine serum; Table B5; listed as 819

CCn1cc(F)c(S(N)(=O)=NC(=O)Nc2c(C)c(C(F)(F)F)nc3c2C(C)CC3)n1 (single isomer, unassigned) [Compound 1100c, (S, R) or (S, S)-N′-((3,5-dimethyl-2-(trifluoromethyl)-6,7-dihydro-5H-cyclopenta[b]pyridin-4-yl)carbamoyl)-1-ethyl-4-fluoro-1H-pyrazole-3-sulfonimidamide] was tested, and the IC50 was 5 to 30 µM.

test system: PMA-differentiated THP-1 cells; assay: hTHP-1 assay containing 10% fetal bovine serum (IL-1β production, Tables B5 and B6); type: cell-based, human; details: Homo sapiens, THP-1, read-out: hTHP-1 IC50 in 10% FBS, hTHP-1 assay containing 10% fetal bovine serum; Table B5
How it was run: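 IL-1β release from PMA-differentiated THP-1 macrophage-like cells was triggered by 5 μM gramicidin for 2 h after 1 h compound exposure, then measured by HTRF.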

First: CCn1cc(F)c([S@](N)(=O)=NC(=O)Nc2c(C)c(C(F)(F)F)nc3c2[C@H](C)CC3)n1 (single isomer, unassigned) [Compound 1100a, (R, R) or (R, S)-N′-((3,5-dimethyl-2-(trifluoromethyl)-6,7-dihydro-5H-cyclopenta[b]pyridin-4-yl)carbamoyl)-1-ethyl-4-fluoro-1H-pyrazole-3-sulfonimidamide]
Second: CCn1cc(F)c([S@](N)(=O)=NC(=O)Nc2c(C)c(C(F)(F)F)nc3c2[C@@H](C)CC3)n1 (single isomer, unassigned) [Compound 1100b, (R, S) or (R, R)-N′-((3,5-dimethyl-2-(trifluoromethyl)-6,7-dihydro-5H-cyclopenta[b]pyridin-4-yl)carbamoyl)-1-ethyl-4-fluoro-1H-pyrazole-3-sulfonimidamide]
The IC50 of the first is higher: 1 to 5 µM for the first, 0.04 to 0.2 µM for the second. The second is the more potent here.

Cc1c(C(F)(F)F)ncc(-c2ccnc(C#N)c2)c1NC(=O)N=S(N)(=O)c1sc(C(C)(C)O)nc1CO (centres unmarked) [Compound 812] and Cc1c(C(F)(F)F)nc2c(c1NC(=O)N=S(N)(=O)c1scc(C(C)(C)O)c1F)CCC2 (centres unmarked) [Compound 1108, 3-Fluoro-4-(2-hydroxy-propan-2-yl)-N′-((3-methyl-2-(trifluoromethyl)-6,7-dihydro-5H-cyclopenta[b]pyridin-4-yl)carbamoyl)thiophene-2-sulfonimidamide] fall in the same range of IC50: 0.04 to 0.2 µM for the first, 0.04 to 0.2 µM for the second.

First: Cc1c(C(F)(F)F)nc2c(c1NC(=O)N=S(N)(=O)c1nn(C(C)(F)F)cc1F)CCC2 (centres unmarked) [Compound 1004, 1-(1,1-Difluoroethyl)-4-fluoro-N′-((3-methyl-2-(trifluoromethyl)-6,7-dihydro-5H-cyclopenta [b]pyridin-4-yl)carbamoyl)-1H-pyrazole-3-sulfonimidamide]
Second: Cc1c(C(F)(F)F)nc2c(c1NC(=O)N=S(N)(=O)c1nn(C3CC3)cc1F)CCC2 (centres unmarked) [Compound 1114, 1-Cyclopropyl-4-fluoro-N′-((3-methyl-2-(trifluoromethyl)-6,7-dihydro-5H-cyclopenta [b]pyridin-4-yl)carbamoyl)-1H-pyrazole-3-sulfonimidamide]
The IC50 of the first is higher: 0.2 to 1 µM for the first, 0.04 to 0.2 µM for the second.

CC(C)(O)c1csc(S(N)(=O)=NC(=O)Nc2c3c(nc(C4CC4)c2C2CC2)CCC3)c1F (centres unmarked) [Compound 1006, N′-((2,3-dicyclopropyl-6,7-dihydro-5H-cyclopenta[b]pyridin-4-yl)-carbamoyl)-3-fluoro-4-(2-hydroxypropan-2-yl)thiophene-2-sulfonimidamide] and CC(C)(O)c1csc(S(N)(=O)=NC(=O)Nc2c3c(nc(C(F)(F)F)c2C2CC2)CCC3)c1F (centres unmarked) [Compound 1105, N′-((3-cyclopropyl-2-(trifluoromethyl)-6,7-dihydro-5H-cyclopenta [b]pyridin-4-yl)carbamoyl)-3-fluoro-4-(2-hydroxypropan-2-yl) thiophene-2-sulfonimidamide] fall in the same range of IC50: 0.04 to 0.2 µM for the first, 0.04 to 0.2 µM for the second.

Cc1c(C(F)(F)F)nc2c(c1NC(=O)N=S(N)(=O)c1cnc(C(F)F)s1)CCC2 (centres unmarked) [Compound 1007, 2-(Difluoromethyl)-N′-((3-methyl-2-(trifluoromethyl)-6,7-dihydro-5H-cyclopenta[b]pyridin-4-yl)carbamoyl)thiazole-5-sulfonimidamide] and Cc1c(C(F)(F)F)nc2c(c1NC(=O)N=S(N)(=O)c1cnc(C(F)(F)F)s1)CCC2 (centres unmarked) [Compound 1118, N′-((3-methyl-2-(trifluoromethyl)-6,7-dihydro-5H-cyclopenta [b]pyridin-4-yl)carbamoyl)-2-(trifluoromethyl) thiazole-5-sulfonimidamide] fall in the same range of IC50: 5 to 30 µM for the first, 5 to 30 µM for the second.

Compared with CCn1cc(F)c(S(N)(=O)=NC(=O)Nc2c3c(nc(C)c2C(F)(F)F)CCC3)n1 (centres unmarked) [Compound 1012, 1-Ethyl-4-fluoro-N′-((2-methyl-3-(trifluoromethyl)-6,7-dihydro-5H-cyclopenta[b]pyridin-4-yl)carbamoyl)-1H-pyrazole-3-sulfonimidamide], C[C@@H]1CCc2c1nc1c(c2NC(=O)N=S(N)(=O)c2nn(C(C)(F)F)cc2F)CCC1 (stereo partly drawn) [Compound 1111, 1-(1,1-Difluoroethyl)-4-fluoro-N′-(((R)-3-methyl-1,2,3,5,6,7-hexahydrodicyclopenta [b,e]pyridin-8-yl)carbamoyl)-1H-pyrazole-3-sulfonimidamide] is lower in IC50: 0.04 to 0.2 µM for the first, 0.008 to 0.04 µM for the second.

Compared with CC(C)(O)c1csc(S(N)(=O)=NC(=O)Nc2c3c(nc4c2CCC4)CCC3)c1F (centres unmarked) [Compound 1107, 3-Fluoro-N′-((1,2,3,5,6,7-hexahydrodicyclopenta [b,e]pyridin-8-yl)carbamoyl)-4-(2-hydroxypropan-2-yl)thiophene-2-sulfonimidamide], C[C@@H]1CCc2c1nc1c(c2NC(=O)N=S(N)(=O)c2scc(C(C)(C)O)c2F)CCC1 (stereo partly drawn) [Compound 1109, 3-Fluoro-4-(2-hydroxy-propan-2-yl)-N′-(((R)-3-methyl-1,2,3,5,6,7-hexahydrodicyclopenta [b,e]pyridin-8-yl)-carbamoyl)thiophene-2-sulfonimidamide] is lower in IC50: 0.04 to 0.2 µM for the first, 0.008 to 0.04 µM for the second. The second is the more potent here.

Compared with Cc1nc2c(c(NC(=O)N=S(N)(=O)c3scc(C(C)(C)O)c3F)c1-c1ccccc1)CCC2 (centres unmarked) [Compound 1110, 3-Fluoro-4-(2-hydroxy-propan-2-yl)-N′-((2-methyl-3-phenyl-6,7-dihydro-5H-cyclopenta [b]pyridin-4-yl)carbamoyl)thiophene-2-sulfonimidamide], C[C@@H](O)Cn1cc(F)c(S(N)(=O)=NC(=O)Nc2c3c(nc4c2CCC42CC2)CCC3)n1 (stereo partly drawn) [Compound 1119, 4-Fluoro-1-((R)-2-hydroxypropyl)-N′-((1′,5′,6′,7′-tetrahydro-2′H-spiro[cyclopropane-1,3′-dicyclopenta[b,e]pyridin]-8′-yl)carbamoyl)-1H-pyrazole-3-sulfonimidamide] is lower in IC50: 0.04 to 0.2 µM for the first, 0.008 to 0.04 µM for the second.

same assay, conditions: Homo sapiens, THP-1, read-out: hTHP-1 IC50 in 10% FBS, hTHP-1 assay containing 10% fetal bovine serum; Table B6

First: Cc1c(C(F)(F)F)nc2c(c1NC(=O)N=S(N)(=O)c1nn(C3CC3)cc1F)CCC2 (centres unmarked) [Example 854, 1-Cyclopropyl-4-fluoro-N′-((3-methyl-2-(trifluoromethyl)-6,7-dihydro-5H-cyclopenta[b]pyridin-4-yl)carbamoyl)-1H-pyrazole-3-sulfonimidamide]
Second: C[C@@H]1CCc2c1nc1c(c2NC(=O)N=S(N)(=O)c2nn(C3CC3)cc2F)CCC1 (stereo partly drawn) [Example 855, 1-Cyclopropyl-4-fluoro-N′-(((R)-3-methyl-1,2,3,5,6,7-hexahydrodicyclopenta[b,e]pyridin-8-yl)carbamoyl)-1H-pyrazole-3-sulfonimidamide]
The IC50 of the first is higher: 0.04 to 0.2 µM for the first, 0.008 to 0.04 µM for the second.

CCn1cc(F)c(S(N)(=O)=NC(=O)Nc2c3c(nc(C(F)(F)F)c2C(F)(F)F)CCC3)n1 (centres unmarked) [Example 856, N′-((2,3-bis(trifluoromethyl)-6,7-dihydro-5H-cyclopenta[b]pyridin-4-yl)carbamoyl)-1-ethyl-4-fluoro-1H-pyrazole-3-sulfonimidamide] and NS(=O)(=NC(=O)Nc1c2c(nc3c1CCC3)CCC2)c1nn(C2CC2)cc1F (centres unmarked) [Example 858, 1-Cyclopropyl-4-fluoro-N′-((1,2,3,5,6,7-hexahydrodicyclopenta[b,e]pyridin-8-yl)carbamoyl)-1H-pyrazole-3-sulfonimidamide] fall in the same range of IC50: 0.04 to 0.2 µM for the first, 0.04 to 0.2 µM for the second.

NS(=O)(=NC(=O)Nc1c2c(nc3c1CCC31CC1)CCC2)c1nn(C2CC2)cc1F (centres unmarked) [Example 857, 1-Cyclopropyl-4-fluoro-N′-((1′,5′,6′,7′-tetrahydro-2′H-spiro[cyclopropane-1,3′-dicyclopenta[b,e]pyridin]-8′-yl)carbamoyl)-1H-pyrazole-3-sulfonimidamide] and NS(=O)(=NC(=O)Nc1c2c(nc3c1CCC31CC1)CCC2)c1ccn(C2CC2)n1 (centres unmarked) [Example 861, 1-Cyclopropyl-N′-((1′,5′,6′,7′-tetrahydro-2′H-spiro[cyclopropane-1,3′-dicyclopenta[b,e]pyridin]-8′-yl)carbamoyl)-1H-pyrazole-3-sulfonimidamide] fall in the same range of IC50: 0.04 to 0.2 µM for the first, 0.04 to 0.2 µM for the second.

same assay, conditions: read-out: hTHP-1 IC50 in 10% FBS; hTHP-1 assay containing 10% fetal bovine serum; Table B5; listed as 819

CCn1cc(F)c(S(N)(=O)=NC(=O)Nc2c(C)c(C(F)(F)F)nc3c2C(C)CC3)n1 (single isomer, unassigned) [Compound 1100c, (S, R) or (S, S)-N′-((3,5-dimethyl-2-(trifluoromethyl)-6,7-dihydro-5H-cyclopenta[b]pyridin-4-yl)carbamoyl)-1-ethyl-4-fluoro-1H-pyrazole-3-sulfonimidamide] showed an IC50 of 5 to 30 µM.

same assay, conditions: read-out: hTHP-1 IC50 in 10% FBS; hTHP-1 assay containing 10% fetal bovine serum; Table B6

First: C[C@@H]1CCc2c1nc1c(c2NC(=O)N=S(N)(=O)c2nn(C3CC3)cc2F)CCC1 (single isomer, unassigned) [Example 868, (S) or (R)-1-cyclopropyl-4-fluoro-N′-(((R)-3-methyl-1,2,3,5,6,7-hexahydrodicyclopenta[b,e]pyridin-8-yl)carbamoyl)-1H-pyrazole-3-sulfonimidamide]
Second: Cc1c(C(F)(F)F)nc2c(c1NC(=O)N=S(N)(=O)c1nn(C3CC3)cc1F)CCC2 (single isomer, unassigned) [Example 869, (R) or (S)-1-cyclopropyl-4-fluoro-N′-((3-methyl-2-(trifluoromethyl)-6,7-dihydro-5H-cyclopenta[b]pyridin-4-yl)carbamoyl)-1H-pyrazole-3-sulfonimidamide]
The IC50 of the first is higher: 0.2 to 1 µM for the first, 0.008 to 0.04 µM for the second. The second is the more potent here.

For Cc1c(C(F)(F)F)nc2c(c1NC(=O)N=S(N)(=O)c1nn(C3CC3)cc1F)CCC2 (single isomer, unassigned) [Example 870, (S) or (R)-1-cyclopropyl-4-fluoro-N′-((3-methyl-2-(trifluoromethyl)-6,7-dihydro-5H-cyclopenta[b]pyridin-4-yl)carbamoyl)-1H-pyrazole-3-sulfonimidamide], the IC50 was 1 to 5 µM.

Source: patent US20230031406A1, “COMPOUNDS AND COMPOSITIONS FOR TREATING CONDITIONS ASSOCIATED WITH NLRP ACTIVITY” (Novartis AG, priority 2018, published 2023)
